Assay results published in patent US20100150863A1, “HYDROXY METHYL PHENYL PYRAZOLYL UREA COMPOUND USEFUL IN TREATMENT OF CANCER” (BAYER PHARMACEUTICALS CORPORATION, priority 2006, published 2010).
Values belong to the compound of their own block, whether it stands above or below them.

Legend:
[1] = tested on: Imatinib-resistant Bcr-Abl mutations; settings: cited from earlier work
Bcr-Abl E255K mutant = settings: cited from earlier work
Bcr-Abl kinase = settings: greater potency than Imatinib; cited from earlier work
Bcr-Abl-wt kinase = biological target: T1, Bcr-Abl-wt kinase (Homo sapiens, UniProt P00519); test: Bcr-Abl wild type biochemical assay
T1 construct: fused on or other part: P11274 (Breakpoint cluster region protein)
T1 sequence (P00519 229-512 limits assumed): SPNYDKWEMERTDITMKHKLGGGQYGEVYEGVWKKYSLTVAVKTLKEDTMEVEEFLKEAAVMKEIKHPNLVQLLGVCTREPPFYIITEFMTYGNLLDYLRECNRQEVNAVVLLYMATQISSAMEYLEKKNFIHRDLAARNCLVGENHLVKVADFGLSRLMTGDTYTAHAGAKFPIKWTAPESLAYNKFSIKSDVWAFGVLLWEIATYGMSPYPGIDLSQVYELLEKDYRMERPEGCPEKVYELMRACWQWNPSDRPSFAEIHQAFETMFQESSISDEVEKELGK
Description: (§1) Bcr-Abl-wt or mutant Bcr-Abl-T315I kinase (0.17 nM) was incubated with Myelin Basic Protein (MBP, 2 μM) in assay buffer consisting of 50 mM Tris pH 7.5, 10 mM MgCl2, 1 mM EGTA, 2 mM DTT, 50 μM ATP and 0.4 μCi of ^33P-ATP. Test compounds were added at varying concentrations (final DMSO conc=1%) prior to the addition of ATP. The reaction mixture was incubated for 1 hour at 32° C. The reaction was then stopped by addition of phosphoric acid (final conc=1%) and samples were transferred to filtermats and read in a betaplate reader. Inhibition of MBP phosphorylation by Bcr-Abl-wt or Bcr-Abl-T315I was analyzed by using a 4 parameter fit and in-house software.

human recombinant c-Met = biological target: T2, human recombinant c-Met (Homo sapiens, UniProt P08581); test: c-Met biochemical assay (ELISA)
T2 construct: C-terminal HIS-tagged intracellular kinase domain (956 to 1390 amino acids) human recombinant c-Met; His (C)
Description: An ELISA format was used for the c-Met biochemical assay. This assay uses the C-terminal HIS-tagged intracellular kinase domain (956 to 1390 amino acids) human recombinant c-Met in 96-well plates. 96-Well plates (Costar #9018) coated with poly(GluTyr) (Sigma # P0275) were used in this assay. The poly(GluTyr) substrate coated on the plate was phosphorylated in a 100 μL reaction volume with 2 nM c-Met protein in an assay buffer (50 mM HEPES pH7.0, 5 mM MnCl2, 0.1% BSA, 0.5 mM sodium orthovanadate, 0.1% β-mercaptoethanol), with 0.2 μM ATP (Sigma #A7699). […] After 25 minutes of incubation, the assay reaction was stopped with 25 μL of 100 mM EDTA. The plates were then washed, and wells were treated with 100 μL of 80 ng/mL anti-4G10-HRP antibody (Upstate #16-105) for 1 h. Plates were washed one final time, and were developed with 100 μL 3,3′,5,5′-TMB (Sigma #T8665), and quenched with 100 μL 1M HCl. Plates were read on a Victor 2 plate reader (Perkin Elmer) and IC50 analysis and calculation were performed using in-house software.

BaF3-Abl(E255K) = test: Cell proliferation assay, BaF3-Abl(E255K); type: cell-based; settings: Imatinib-resistant mutation
Source text: [Worded in the source for another cell line; this cell line is reported under the same test.] (§2) The adherent tumor cell proliferation assay used to test the compounds of the present invention involves a readout called Cell Titre-Glo developed by Promega (Cunningham, B A “A Growing Issue: Cell Proliferation Assays. Modern kits ease quantification of cell growth” The Scientist 2001, 15(13), 26; and Crouch, S P et al., “The use of ATP bioluminescence as a measure of cell proliferation and cytotoxicity” Journal of Immunological Methods 1993, 160, 81-88).
(§3) H460 cells (lung carcinoma, purchased from ATCC) were plated in 96-well plates at 3000 cells/well in complete media with 10% Fetal Calf Serum and incubated 24 hours at 37° C. Twenty-four hours after plating, test compounds were added over a final concentration range of 10 nM to 20 μM in serial dilutions at a final DMSO concentration of 0.2%. Cells were incubated for 72 hours at 37° C. in complete growth media after addition of the test compound. On day 4, using a Promega Cell Titer Glo Luminescent® assay kit, the cells were lysed and 100 microliters of substrate/buffer mixture was added to each well, mixed and incubated at room temperature for 8 minutes. The samples were read on a luminometer to measure the amount of ATP present in the cell lysates from each well, which corresponds to the number of viable cells in that well. Values read at 24-hour incubation were subtracted as Day 0. […]

[2] = tested on: BaF3 parental cell line that does not express Bcr-Abl; test: Cell proliferation assay, BaF3 parental cell line; type: cell-based; settings: Mus musculus
BaF3-Abl(Y253F) = test: Cell proliferation assay, BaF3-Abl(Y253F); type: cell-based; settings: Imatinib-resistant mutation
Source text: [Worded in the source for another cell line; this cell line is reported under the same test.] as §2, §3

BaF3-Abl(T315I) = test: Cell proliferation assay, BaF3-Abl(T315I); type: cell-based; settings: Imatinib-resistant mutation
Source text: [Worded in the source for another cell line; this cell line is reported under the same test.] as §2, §3

K562 = test: Cell proliferation assay, K562; type: cell-based; settings: K562, human cell line expressing wild type Bcr-Abl; 72 hours, Cell Titer Glo
Source text: [Worded in the source for another cell line; this cell line is reported under the same test.] as §2, §3

BaF3-Abl(M351T) = test: Cell proliferation assay, BaF3-Abl(M351T); type: cell-based; settings: Imatinib-resistant mutation
Source text: [Worded in the source for another cell line; this cell line is reported under the same test.] as §2, §3

BaF3-Abl(wt) = test: Cell proliferation assay, BaF3-Abl(wt); type: cell-based
Source text: [Worded in the source for another cell line; this cell line is reported under the same test.] as §2, §3

[3] = biological target: T3, mutant Bcr-Abl-T315I kinase (Homo sapiens, UniProt P00519, T315I); test: Bcr-Abl mutant T315I biochemical assay
T3 construct: fused on or other part: P11274 (Breakpoint cluster region protein)
T3 sequence (P00519 242-493 T315I limits assumed): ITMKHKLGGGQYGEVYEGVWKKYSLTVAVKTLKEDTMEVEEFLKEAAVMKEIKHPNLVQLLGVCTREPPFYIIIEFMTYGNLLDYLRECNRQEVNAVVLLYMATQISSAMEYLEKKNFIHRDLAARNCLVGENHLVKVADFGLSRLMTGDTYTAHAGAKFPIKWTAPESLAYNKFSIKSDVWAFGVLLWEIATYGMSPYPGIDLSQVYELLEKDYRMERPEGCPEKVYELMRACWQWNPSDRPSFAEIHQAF
Description: as §1

early phase CML = settings: patients with early phase CML; cited from earlier work

T2 sequence (P08581 956-1390): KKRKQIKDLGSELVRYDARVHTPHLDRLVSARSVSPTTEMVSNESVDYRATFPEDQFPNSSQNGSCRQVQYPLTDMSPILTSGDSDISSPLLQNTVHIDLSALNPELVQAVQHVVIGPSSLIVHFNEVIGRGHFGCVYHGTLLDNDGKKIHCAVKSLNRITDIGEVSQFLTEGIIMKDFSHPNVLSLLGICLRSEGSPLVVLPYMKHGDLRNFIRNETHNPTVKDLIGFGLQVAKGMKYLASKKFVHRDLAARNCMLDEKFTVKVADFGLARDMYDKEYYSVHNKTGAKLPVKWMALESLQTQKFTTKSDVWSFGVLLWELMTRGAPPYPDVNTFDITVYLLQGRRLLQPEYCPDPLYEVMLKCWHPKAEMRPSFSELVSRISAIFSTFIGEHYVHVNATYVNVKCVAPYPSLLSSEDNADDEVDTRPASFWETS

Structure (SMILES): Cc1cn(-c2cc(NC(=O)c3ccc(C)c(Nc4nccc(-c5cccnc5)n4)c3)cc(C(F)(F)F)c2)cn1 [AMN-107, nilotinib]
inhibition of Imatinib-resistant Bcr-Abl mutations [1]: inhibit most Imatinib-resistant Bcr-Abl mutations, except for T315I | inhibition of E255K mutant in a biochemical assay (Bcr-Abl E255K mutant): somewhat weak inhibition | potency of Bcr-Abl kinase inhibition relative to Imatinib (Bcr-Abl kinase): 20 fold

IC50 (Bcr-Abl-wt kinase): < 10 µM | IC50 (human recombinant c-Met): < 10 µM | IC50 (BaF3-Abl(E255K)): 0.0539 µM | IC50 (BaF3-Abl(Y253F)): 0.00496 µM | IC50 (BaF3-Abl(T315I)): 0.071 µM | IC50 (K562): 0.000448 µM | IC50 (BaF3-Abl(M351T)): 0.00838 µM | IC50 (BaF3-Abl(wt)): 0.00281 µM | IC50 [3]: < 10 µM
Structure (SMILES): CNC(=O)c1cc(Oc2ccc(NC(=O)Nc3cc(C(C)(C)C)nn3-c3cccc(CO)c3)c(Cl)c2)ccn1 [ANDREA-1, 4-{4-[({3-tert-Butyl-1-[3-(hydroxymethyl)phenyl]-1H-pyrazol-5-yl}carbamoyl)amino]-3-chlorophenoxy}-N-methylpyridine-2-carboxamide]
IC50 [2]: > 3 µM

Structure (SMILES): Cc1ccc(NC(=O)c2ccc(CN3CCN(C)CC3)cc2)cc1Nc1nccc(-c2cccnc2)n1 [Imatinib]
degree of response at haematological and cytogenetic levels (early phase CML): greater than 90%
